Here are results for eight compounds from patent US7601713B2, “Kinase inhibitors and their uses” (Rigel Pharmaceuticals, Inc., priority 2005, dated 2009).

Read-outs that look alike come from different tables or passages of the source.

Assay [1] deals with kinase Lyn b (Homo sapiens, UniProt P07948). Put plainly: Lyn b kinase inhibition. The class given is biochemical.
For assay [2], the target named is Lck kinase (Homo sapiens, UniProt P06239). The assay can be described thus: Lck kinase inhibition. The class given is biochemical.
Lck kinase, sequence (P06239 whole entry): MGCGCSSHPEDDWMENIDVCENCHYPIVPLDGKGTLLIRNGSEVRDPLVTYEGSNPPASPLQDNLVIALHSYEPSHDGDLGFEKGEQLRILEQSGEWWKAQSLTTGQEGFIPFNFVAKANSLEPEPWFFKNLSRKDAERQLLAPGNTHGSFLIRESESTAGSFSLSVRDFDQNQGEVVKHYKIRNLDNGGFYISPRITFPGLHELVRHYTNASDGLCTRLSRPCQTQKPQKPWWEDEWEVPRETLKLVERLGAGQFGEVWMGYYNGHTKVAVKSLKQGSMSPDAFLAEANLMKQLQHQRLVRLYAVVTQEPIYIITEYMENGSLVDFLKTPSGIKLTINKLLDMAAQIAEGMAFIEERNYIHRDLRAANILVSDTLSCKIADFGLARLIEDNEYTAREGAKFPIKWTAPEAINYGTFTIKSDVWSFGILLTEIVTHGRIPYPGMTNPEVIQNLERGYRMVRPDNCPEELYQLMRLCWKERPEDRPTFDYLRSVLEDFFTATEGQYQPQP
For assay [3], the target named is Syk kinase (Homo sapiens, UniProt P43405). The assay can be described thus: cell-based Syk assay. The following applies: read-out: IC50, inhibition of Syk kinase.
Assay [4] has as its system JAK kinases (JAK1 and JAK3). The assay can be described thus: JAK inhibition: IL-4-stimulated CD23 upregulation in human Ramos B-cells, FACS. The class given is cell-based. The following applies: IL-4 stimulated Ramos B-cells, read-out: IC50, inhibition of JAK kinases in cellular assay. A digest of the protocol: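 Ramos B-cells in RPMI with 5% FBS were pre-incubated with compound for 1 h at 37 °C, then stimulated with IL-4 (50 U/ml final) for 20–24 h. CD23 upregulation was measured by anti-CD23-PE staining and FACS.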

Assay [5] deals with T1, Axl kinase (Homo sapiens, UniProt P30530).
T1 construct: endogenous in cells; host or cells: HeLa cells
T1 sequence (P30530 26-894): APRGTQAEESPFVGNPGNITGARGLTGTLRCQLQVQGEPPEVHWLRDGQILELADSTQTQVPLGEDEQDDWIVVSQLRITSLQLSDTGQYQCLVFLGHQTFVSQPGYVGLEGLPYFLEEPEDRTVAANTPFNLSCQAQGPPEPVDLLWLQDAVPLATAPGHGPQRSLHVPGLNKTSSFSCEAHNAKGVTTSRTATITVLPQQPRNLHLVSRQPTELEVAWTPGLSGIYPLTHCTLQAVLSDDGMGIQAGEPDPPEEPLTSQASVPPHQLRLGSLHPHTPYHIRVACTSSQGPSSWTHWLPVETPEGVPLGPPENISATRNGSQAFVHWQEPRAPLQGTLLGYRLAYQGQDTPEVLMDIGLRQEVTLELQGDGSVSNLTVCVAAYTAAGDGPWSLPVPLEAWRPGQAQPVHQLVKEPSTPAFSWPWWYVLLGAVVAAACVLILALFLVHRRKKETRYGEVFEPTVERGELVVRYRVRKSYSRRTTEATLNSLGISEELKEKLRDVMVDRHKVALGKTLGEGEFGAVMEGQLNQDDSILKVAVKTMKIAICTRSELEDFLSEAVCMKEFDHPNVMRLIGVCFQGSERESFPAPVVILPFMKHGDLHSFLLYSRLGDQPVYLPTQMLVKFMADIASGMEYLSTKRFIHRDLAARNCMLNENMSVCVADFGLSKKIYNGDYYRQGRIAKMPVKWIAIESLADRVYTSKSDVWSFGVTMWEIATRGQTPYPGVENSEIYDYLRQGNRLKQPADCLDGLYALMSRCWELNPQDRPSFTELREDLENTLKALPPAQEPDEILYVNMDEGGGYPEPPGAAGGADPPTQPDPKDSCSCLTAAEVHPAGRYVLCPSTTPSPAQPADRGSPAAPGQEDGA
Put plainly: Phospho-Akt in-cell Western assay (Axl antibody cross-linking, Hela cells). Format: cell-based. The settings on record: phospho-Akt readout, read-out: IC50, inhibition of Axl kinase. The method in brief:
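HeLa cells were starved 24 h in 0.5% FCS with 500 ng/mL Axl/Fc, pretreated with compound 1 h at 37 °C, then stimulated 5 min by cross-linked anti-Axl antibodies. Phospho-Akt was detected by in-cell chemiluminescent immunoassay and normalized to crystal violet cell number at 590 nm.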

For assay [6], the target named is PRK1 kinase (Homo sapiens, UniProt Q16512). The assay can be described thus: PRK1 kinase inhibition. The class given is biochemical.
PRK1 kinase, sequence (Q16512 whole entry): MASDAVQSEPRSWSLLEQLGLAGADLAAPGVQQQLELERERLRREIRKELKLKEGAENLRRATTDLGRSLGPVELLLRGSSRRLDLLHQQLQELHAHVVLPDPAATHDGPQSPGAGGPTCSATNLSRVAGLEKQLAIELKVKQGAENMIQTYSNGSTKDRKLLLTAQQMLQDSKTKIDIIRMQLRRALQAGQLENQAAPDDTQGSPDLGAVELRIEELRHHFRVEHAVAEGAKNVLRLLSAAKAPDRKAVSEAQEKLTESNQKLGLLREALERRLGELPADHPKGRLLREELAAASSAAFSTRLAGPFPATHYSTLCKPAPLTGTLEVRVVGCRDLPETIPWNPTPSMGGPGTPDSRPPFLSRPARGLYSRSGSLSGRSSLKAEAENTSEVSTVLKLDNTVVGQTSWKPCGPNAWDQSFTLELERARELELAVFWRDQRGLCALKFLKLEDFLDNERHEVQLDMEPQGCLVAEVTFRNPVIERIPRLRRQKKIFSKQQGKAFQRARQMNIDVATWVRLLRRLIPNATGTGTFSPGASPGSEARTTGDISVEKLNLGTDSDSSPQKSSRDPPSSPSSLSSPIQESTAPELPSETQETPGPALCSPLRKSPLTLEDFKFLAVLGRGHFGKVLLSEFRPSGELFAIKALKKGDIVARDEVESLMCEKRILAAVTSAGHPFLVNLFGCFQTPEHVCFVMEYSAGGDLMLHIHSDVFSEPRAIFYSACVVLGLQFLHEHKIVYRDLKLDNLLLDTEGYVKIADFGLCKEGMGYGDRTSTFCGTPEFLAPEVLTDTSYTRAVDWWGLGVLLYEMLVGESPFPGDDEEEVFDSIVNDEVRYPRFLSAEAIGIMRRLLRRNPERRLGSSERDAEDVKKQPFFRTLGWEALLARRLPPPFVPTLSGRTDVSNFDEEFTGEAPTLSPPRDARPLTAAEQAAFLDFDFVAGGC
In assay [7] the target is Aurora kinase B (Homo sapiens, UniProt Q96GD4). The settings on record: compared to the (1S,2S,3R,4R) diastereomers; cited from earlier work.
Aurora kinase B, sequence (Q96GD4 whole entry, species assumed): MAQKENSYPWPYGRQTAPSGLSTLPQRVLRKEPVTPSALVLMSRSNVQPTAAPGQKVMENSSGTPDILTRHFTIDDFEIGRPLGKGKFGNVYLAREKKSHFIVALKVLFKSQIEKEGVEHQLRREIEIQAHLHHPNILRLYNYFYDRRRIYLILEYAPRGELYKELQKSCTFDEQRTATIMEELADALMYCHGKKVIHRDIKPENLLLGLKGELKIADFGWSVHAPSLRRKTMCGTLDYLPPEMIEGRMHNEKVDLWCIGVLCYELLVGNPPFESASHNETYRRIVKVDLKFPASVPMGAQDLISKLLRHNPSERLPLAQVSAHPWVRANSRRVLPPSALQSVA
For assay [8], the system named is tumor cell lines. The settings on record: cited from earlier work; for antiproliferative activity against tumor cell types: in vitro assays, variety of tumor cell lines.
Assay [9] deals with Aurora kinases. The following applies: cited from earlier work.

kinase Lyn b, sequence (P07948 1-491 isoform P07948-2): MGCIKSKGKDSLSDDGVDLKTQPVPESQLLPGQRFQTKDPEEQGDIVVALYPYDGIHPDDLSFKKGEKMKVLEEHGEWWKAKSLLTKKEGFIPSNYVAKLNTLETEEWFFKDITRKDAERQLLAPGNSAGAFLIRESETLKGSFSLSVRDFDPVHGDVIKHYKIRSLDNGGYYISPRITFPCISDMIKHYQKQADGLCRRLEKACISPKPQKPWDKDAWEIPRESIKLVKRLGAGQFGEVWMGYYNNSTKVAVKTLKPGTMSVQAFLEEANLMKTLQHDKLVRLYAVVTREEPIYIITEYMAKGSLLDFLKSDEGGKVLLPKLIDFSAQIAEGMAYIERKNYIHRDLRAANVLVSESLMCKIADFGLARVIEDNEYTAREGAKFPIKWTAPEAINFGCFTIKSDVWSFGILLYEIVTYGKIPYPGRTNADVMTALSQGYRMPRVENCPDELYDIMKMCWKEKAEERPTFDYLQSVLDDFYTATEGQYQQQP

As for `COc1ccccc1Nc1nc(NC2C3C=CC(C3)C2C(N)=O)c2nc[nH]c2n1` (racemic) [Compound 136, Racemic-(2-exo,3-exo-)-N6-(3-aminocarbonylbicyclo[2.2. 1]hept-5-en-2-yl)-N2-(2-methoxy)phenyl-1H-purine-2,6-diamine], the figures for the IC50 in assay [1], in assay [2] and in assay [3] were above 10 µM, below 10 µM and below 10 µM, respectively.
For `CC(C)Oc1cccc(Nc2nc(NC3CC4CCC3C4)c3nc[nH]c3n2)c1` (racemic) [Compound 153, Racemic-(2-exo)-N6-(bicyclo[2.2.1]hept-2-yl)-N2-(3-isopropoxy)phenyl-1H-purine-2,6-diamine], the concentration for half-maximal inhibition (IC50) (usually the concentration at which inhibition is half-maximal) in assay [4] was below 5 µM; in assay [2], below 5 µM; in [3], below 10 µM.
For `N#Cc1ccc(-c2ccc(Nc3nc(NC4C5C=CC(C5)C4C(N)=O)c4cc[nH]c4n3)cc2)cc1` (racemic) [Compound 220, Racemic-(2-exo,3-exo)-N4-(3-aminocarbonylbicyclo [2.2.1]hept-5-en-2-yl)-N2-[(4′-cyano[1,1′-biphenyl]-4-yl)]-1H-pyrrolo[2,3-d]pyrimidine-2,4-diamine], the results for the IC50 in [5] and in assay [6] were above 10 µM and below 5 µM, respectively.
`NC(=O)C1C2C=CC(C2)C1Nc1nc(Nc2cccc(CN3CCOCC3)c2)nc2[nH]ccc12` (racemic) [Compound 221, Racemic-(2-exo,3-exo)-N4-(3-aminocarbonylbicyclo [2.2.1]hept-5-en-2-yl)-N2-(3-morpholin-4-yl-methylphenyl)-1H-pyrrolo[2,3-d]pyrimidine-2,4-diamine]: the IC50 in assay [5], in assay [3] and in assay [6] was below 5 µM each time.
`Cc1cc(Nc2ncc(F)c(NC3C4C=CC(C4)C3C(N)=O)n2)ccc1N1CCN(C)CC1` [(1R,2R,3S,4S) diastereomer, N4-(3-aminocarbonylbicyclo [2.2.1]hept-5-en-2-yl)-5-fluoro-N2-[3-methyl-4-(4-methylpiperazin-1-yl)phenyl]-2,4-pyrimidinediamine]: the “inhibition of Aurora kinase B in cells” value in assay [7] is “similarly superior results”. The “potency of (1R,2R,3S,4S) diastereomer relative to (1S,2S,3R,4R) diastereomer” value in assay [8] is “approximately 1000 fold”. Also, in assay [8] (isolated stereoisomers), the “IC50s against tumor cell lines” value is recorded as “nanomolar range”.
Regarding `Cc1cc(Nc2ncc(F)c(NC3CCCC3C(N)=O)n2)ccc1N1CCN(C)CC1` [cis (1R,2S), N4-(2-aminocarbonylcyclopent-1-yl)-5-fluoro-N2-[4-(4-methylpiperazin-1-yl)-3-methylphenyl]-2,4-pyrimidinediamine], the “antiproliferative activity against tumor cell types” value (“antiproliferative activity” below) was “inhibit the proliferation” in assay [8] and “exhibited antiproliferative activity” in assay [8] (listed as (1R,2S)). Besides, in assay [9], the “inhibition of Aurora kinases” value is on record as “inhibited Aurora kinases”.
As for `Cc1cc(Nc2ncc(F)c(NC3CCCC3C(N)=O)n2)ccc1N1CCN(C)CC1` [cis (1S,2R), N4-(2-aminocarbonylcyclopent-1-yl)-5-fluoro-N2-[4-(4-methylpiperazin-1-yl)-3-methylphenyl]-2,4-pyrimidinediamine], the “antiproliferative activity” value in assay [8] was “inhibit the proliferation”; in [8] (listed as cis(1S,2R)) it was “exhibited antiproliferative activity”. Besides, the “inhibition of Aurora kinases” value in assay [9] is “inhibited Aurora kinases”.
As to `Cc1cc(Nc2ncc(F)c(NC3CCCC3C(N)=O)n2)ccc1N1CCN(C)CC1` [trans (1R,2R) diastereomer, N4-(2-aminocarbonylcyclopent-1-yl)-5-fluoro-N2-[4-(4-methylpiperazin-1-yl)-3-methylphenyl]-2,4-pyrimidinediamine], the “antiproliferative activity” value in [8] was “inhibit the proliferation”; in assay [8] (listed as trans(1R,2R)) it was “exhibited antiproliferative activity”. In [9], the “inhibition of Aurora kinases” value is listed as “inhibited Aurora kinases”.
